Test results: patent US20150010474A1, “Compounds And Methods For Selective Imaging And/Or Ablation” (Auckland Uniservices Limited, priority 2011, published 2015)

Experiments:
[1] = system: human solid tumour xenograft NCI-H1299 (WT); test: Hypoxia-dependent binding by fluorescent immunohistochemistry with pimonidazole co-staining; assay type: in vivo, NIH-III nude mice; details: 60 mg/kg i.p., 60 minutes after 60 mg/kg pimonidazole; tumours excised after 120 minutes
Protocol: FIG. 10 illustrates the absence of hypoxic-dependent binding of compound 67 and compound 93 by fluorescent immune-histochemistry in the human solid tumour xenograft NCI-H1299, with reference to hypoxia staining by compound 15 and pimonidazole (Hypoxyprobe™) as internal standards (positive controls). NCI-H1299 WT tumours were inoculated subcutaneously onto the flank of NIH-Ill nude mice. When the mixed tumours reached approximately 800 mm^3, mice were dosed i.p. with 60 mg/kg of pimonidazole, and 60 minutes later dosed with either 60 mg/kg of compound 15, or 60 mg/kg of compound 67, or 60 mg/kg of compound 93. After 120 minutes the tumours were excised, and fixed in formalin before being embedded in paraffin wax. Tumour section were cut (5 microns) and mounted onto glass slides for immunodetection of bound adducts of compounds. Immunofluorescent microscopy was performed using a monoclonal antibody (Mab1, hybridoma clone 4.3.11.3) conjugated to Alexa-488 (Ex/Em 499/519; green) for the detection of pimonidazole adducts, and monoclonal antibody ELK3-51 directly conjugated to the fluorophore CY5 (Ex/Em 650/670 nm; red) for detection of adducts formed by compound 15 or compound 67 or compound 93. The overlap of pimonidazole with any one of these markers appears as yellow. Images were acquired on a Zeiss LSM 710 confocal microscope (×20 magnification).

[2] = system: human solid tumour xenograft HCT116 (WT); test: Hypoxia-dependent binding by immunofluorescent microscopy with pimonidazole co-staining; assay type: in vivo, NIH-III nude mice; details: 60 mg/kg i.p., 60 minutes after 60 mg/kg pimonidazole; tumours excised after 120 minutes
Protocol: FIG. 9 illustrates the absence of hypoxic dependent binding of compound 67 in the human solid tumour xenograft HCT116 relative to compound 15 whilst including hypoxia co-staining by pimonidazole (Hypoxyprobe™) as an internal reference (positive control). HCT116 WT tumours were inoculated subcutaneously onto the flank of NIH-Ill nude mice. When the mixed tumours reached approximately 500 mm^3, mice were dosed i.p. with 60 mg/kg of pimonidazole, and 60 minutes later dosed with either 60 mg/kg of compound 15 or 60 mg/kg of compound 67. After 120 minutes the tumours were excised, and fixed in formalin before being embedded in paraffin wax. Tumour section were cut (5 microns) and mounted onto glass slides for immunodetection of bound adducts of compounds. Immunofluorescent microscopy was performed using a monoclonal antibody (Mab1, hybridoma clone 4.3.11.3) conjugated to Alexa-488 (green) for the detection of pimonidazole adducts, and monoclonal antibody ELK3-51 directly conjugated to the fluorophore CY5 (Ex/Em 650/670 nm) for detection of adducts formed by compound 15 or compound 67. The overlap of pimonidazole with either one of these markers appears as yellow. Images were acquired on a Zeiss LSM 710 confocal microscope (×20 magnification).

[3] = system: E. coli SOS (DNA damage repair) response; test: SOS assay (β-galactosidase activity) in NTR over-expression library; assay type: cell-based, Escherichia coli; details: 4 h challenge with 8 μM compound 67
Protocol: FIG. 2 illustrates the metabolism of compound 67 by members of the 58-membered NTR over-expression library as measured by (A) Growth Inhibition assay and (B) SOS assay. (A) Growth Inhibition assay. Turbidity (OD600) of NTR over-expressing cell cultures was recorded directly before and after 4 h incubation with 400 μM compound 67. Percentage Growth Inhibition represents the decrease in OD600 of challenged cells relative to unchallenged control cells for each strain post-incubation (i.e. 100−[100×OD600 of challenged cells/OD600 of unchallenged cells]). Data are the average of 2 independent assays and the error bars indicate ±1 standard deviation. Labelled bars indicate the NfsA and NfsB family members within the NTR library. (B) SOS assay. […] The data presented is the SOS response, measured by β-galactosidase activity (in Miller units), of NTR over-expressing E. coli SOS-R2 after 4 h challenge with 8 μM compound 67. Full details of assay protocol and calculations are as described in G A Prosser, J N Copp, S P Syddall, E M Williams, J B Smaill, W R Wilson, A V Patterson and D F Ackerley. 2010. Discovery and evaluation of Escherichia coli nitroreductases that activate the anti-cancer prodrug CB1954. Biochemical Pharmacology 79: 678-687. Data are the average of 2 independent assays and the error bars indicate ±1 standard deviation. […]

[4] = system: NfsB (E.s); test: Initial rate of metabolism by purified recombinant bacterial nitroreductase (NADPH consumption, UV/Vis); assay type: biochemical, Enterobacter (Chronobacter) sakazakii; details: compound 500 μM, NADPH 200 μM, 10 mM Tris-Cl pH 7.0; μmol NADPH consumed per mg enzyme per minute
Protocol: (§1) The relative initial rates of reductive metabolism of the nitro moiety of test compounds by bacterial nitroreductase's can be measured experimentally by incubating the test compound at near-saturating concentration (determined empirically) with the purified recombinant bacterial nitroreductase enzymes in the presence of NADPH co-factor. UV/Vis spectroscopy is used to measure consumption of the co-factor, indicating metabolism of the test compound by the nitroreductase.
(§2) Compounds 67, 93 and 97 (500 μM) were added to NADPH (200 μM) in 10 mM Tris-Cl pH 7.0. Reactions were initiated by enzyme addition (between 5 and 20 μg per reaction). Rates represent μmol of NADPH consumed per mg enzyme added per minute.

[5] = One-electron reduction potential E(1) by pulse radiolysis; assay type: physicochemical; details: determined against methylviologen, E(1)MV2+/MV+. = −447 ± 7 mV
Excerpt: The E(1) values of many compounds can be obtained from the literature, (for example, Wardman, P. J. Phys. Chem. Ref. Data, 1989, 18, 1637-1755.) or determined by a number of methods. The pulse radiolysis method, for example, measures the equilibrium constant between the radical anions of the nitroheterocyclic or nitroaromatic compound, formed upon their 1-electron reduction, and reference standards such as viologen and quinone compounds, from which data the E(1) values of the compounds can be calculated. (Meisel and Czapski. J. Phys. Chem., 1975, 79, 1503-1509.)
(Anderson et al, J. Phys. Chem. A, 101, 9704-9709, 1997).

[6] = molecular target: T1, NfsB (E.c) (Escherichia coli, UniProt P38489); test: Initial rate of metabolism by purified recombinant bacterial nitroreductase (NADPH consumption, UV/Vis); assay type: biochemical; details: compound 500 μM, NADPH 200 μM, 10 mM Tris-Cl pH 7.0; μmol NADPH consumed per mg enzyme per minute
T1 construct: made in house
T1 sequence (P38489 whole entry): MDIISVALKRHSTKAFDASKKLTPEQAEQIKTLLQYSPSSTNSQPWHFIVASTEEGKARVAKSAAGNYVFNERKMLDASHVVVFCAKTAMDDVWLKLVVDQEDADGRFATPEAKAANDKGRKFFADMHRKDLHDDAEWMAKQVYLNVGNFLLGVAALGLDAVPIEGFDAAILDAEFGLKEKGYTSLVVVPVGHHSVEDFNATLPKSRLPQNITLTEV
Protocol: as §1, §2

SMILES | Hypoxia-dependent binding in NCI-H1299 WT tumours, immunofluorescent microscopy (FIG. 10) [1] | melting point | Hypoxia-dependent binding in HCT116 WT tumours (FIG. 9) [2] | SOS response upon activation [3] | Rate of metabolism by NfsB (E.s) [4] | E(1)/V [5] | Rate of metabolism by NfsB (E.c) [6]
Cc1ncc([N+](=O)[O-])n1CC(=O)NCC(F)(F)C(F)(F)F [Compound 67, 2-(2-methyl-5-nitro-1H-imidazol-1-yl)-N-(2,2,3,3,3-pentafluoropropyl)acetamide] | not detected in the pimonidazole positive hypoxic regions of the NCI-H1299 tumours | 149 to 151 °C | not detected in the pimonidazole positive hypoxic regions of the tumour | demonstrates an ability to evoke the E. coli SOS (DNA damage repair) response upon activation | 2.4 µmol/min/mg | −0.501 V | –
O=C(Cn1cnc([N+](=O)[O-])c1)NCC(F)(F)C(F)(F)F [Compound 93, 2-(4-nitro-1H-imidazol-1-yl)-N-(2,2,3,3,3-pentafluoropropyl)acetamide] | not detected in the pimonidazole positive hypoxic regions of the NCI-H1299 tumours | – | – | – | – | −0.578 V | 0.82 µmol/min/mg
